# In PMC2248166, “Quantitative peptide binding motifs for 19 human and mouse MHC class I molecules derived using positional scanning combinatorial peptide libraries” (Immunome Research, 2008):
# Where a SMILES comes first, the peptide text is derived from it.
# Target: HLA A*3201 (Homo sapiens, UniProt P04439, A270S/D101S/D185E/E176V/E277Q/F133L/G103R/G107R/G231S/H175R/I121M/I218V/I322F/K168Q/L105A/L300P/L318F/M331R/P208A/P217A/Q94H/R106L/R138Q/S129P/T104I/T323A/T345S/V100E/V321M/V358M)
# Experiment: biochemical
# Assay type: binding
row,Structure (SMILES),IC50
1,CC[C@H](C)[C@H](N)C(=O)N[C@H](C(=O)N[C@@H](Cc1ccc(O)cc1)C(=O)N[C@@H](Cc1c[nH]c2ccccc12)C(=O)N[C@@H](CO)C(=O)N[C@@H](CCCNC(=N)N)C(=O)N[C@@H](Cc1ccccc1)C(=O)N[C@H](C(=O)N[C@H](C(=O)O)[C@@H](C)CC)[C@@H](C)O)[C@@H](C)O [3102.0387] (H-ITYWSRFTI-OH),2.5 nM
2,CC[C@H](C)[C@H](NC(=O)[C@H](CO)NC(=O)[C@@H](NC(=O)CNC(=O)[C@H](CC(C)C)NC(=O)[C@@H](NC(=O)[C@H](CO)NC(=O)[C@H](CCSC)NC(=O)[C@@H](N)CCCCN)[C@@H](C)CC)C(C)C)C(=O)O [3102.0388] (H-KMSILGVSI-OH),2.4 nM
3,CC[C@H](C)[C@H](NC(=O)[C@H](CC(N)=O)NC(=O)[C@@H](NC(=O)[C@@H](NC(=O)[C@@H](N)CO)[C@@H](C)O)[C@@H](C)CC)C(=O)N[C@@H](CS)C(=O)N[C@@H](CC(C)C)C(=O)N1CCC[C@H]1C(=O)N[C@@H](Cc1ccc(O)cc1)C(=O)O [3102.0390] (H-STINICLPY-OH),32 nM
4,CC[C@H](C)[C@H](NC(=O)[C@H](CC(C)C)NC(=O)[C@H](Cc1c[nH]cn1)NC(=O)[C@@H](N)CCCNC(=N)N)C(=O)N[C@@H](Cc1ccccc1)C(=O)N[C@@H](CO)C(=O)N[C@@H](Cc1ccc(O)cc1)C(=O)N[C@@H](C)C(=O)N[C@@H](Cc1ccccc1)C(=O)O [3102.0393] (H-RHLIFSYAF-OH),14 nM
5,CC[C@H](C)[C@H](NC(=O)[C@H](CO)NC(=O)[C@H](CS)NC(=O)[C@H](CCSC)NC(=O)[C@@H](N)C(C)C)C(=O)N[C@@H](CO)C(=O)N[C@@H](CC(C)C)C(=O)N[C@H](C(=O)N[C@@H](Cc1ccc(O)cc1)C(=O)O)[C@@H](C)O [3102.0394] (H-VMCSISLTY-OH),11 nM
6,CC[C@H](C)[C@H](NC(=O)[C@@H]1CCCN1C(=O)[C@H](CC(C)C)NC(=O)[C@@H](NC(=O)[C@H](Cc1ccc(O)cc1)NC(=O)[C@H](Cc1ccccc1)NC(=O)[C@H](CCSC)NC(=O)[C@H](CC(C)C)NC(=O)[C@@H](N)Cc1c[nH]cn1)[C@@H](C)O)C(=O)O [3102.0397] (H-HLMFYTLPI-OH),0.18 nM
7,CC[C@H](C)[C@H](NC(=O)[C@H](CC(N)=O)NC(=O)[C@H](CC(N)=O)NC(=O)[C@@H](NC(=O)[C@@H]1CCCN1C(=O)[C@H](CCC(N)=O)NC(=O)[C@H](CC(N)=O)NC(=O)[C@H](CC(C)C)NC(=O)[C@@H](N)CCCNC(=N)N)C(C)C)C(=O)O [3102.0398] (H-RLNQPVNNI-OH),25 nM
8,CC[C@H](C)[C@H](N)C(=O)N[C@@H](CO)C(=O)N[C@@H](Cc1c[nH]c2ccccc12)C(=O)N[C@@H](CCSC)C(=O)N[C@@H](CCSC)C(=O)N[C@@H](CCCCN)C(=O)N[C@@H](CC(C)C)C(=O)NCC(=O)N[C@H](C(=O)O)[C@@H](C)CC [3102.0399] (H-ISWMMKLGI-OH),42 nM
9,CC[C@H](C)[C@H](NC(=O)[C@@H](NC(=O)[C@H](CC(N)=O)NC(=O)[C@@H](NC(=O)[C@@H](NC(=O)[C@H](C)NC(=O)[C@H](Cc1c[nH]c2ccccc12)NC(=O)[C@H](CC(C)C)NC(=O)[C@@H](N)[C@@H](C)O)[C@@H](C)CC)[C@@H](C)CC)[C@@H](C)O)C(=O)O [3102.0403] (H-TLWAIINTI-OH),1.5 nM
10,CC[C@H](C)[C@H](NC(=O)[C@@H](NC(=O)[C@@H]1CCCN1C(=O)[C@@H](NC(=O)[C@H](Cc1ccccc1)NC(=O)[C@H](CC(N)=O)NC(=O)[C@H](CCSC)NC(=O)[C@@H](NC(=O)[C@@H](N)CO)C(C)C)[C@@H](C)CC)[C@@H](C)CC)C(=O)O [3102.0404] (H-SVMNFIPII-OH),0.6 nM
11,CC[C@H](C)[C@H](N)C(=O)N[C@H](C(=O)N[C@@H](Cc1ccc(O)cc1)C(=O)N1CCC[C@H]1C(=O)N[C@@H](CCCCN)C(=O)N[C@@H](C)C(=O)N[C@@H](CC(C)C)C(=O)N[C@H](C(=O)N[C@@H](Cc1ccccc1)C(=O)O)C(C)C)[C@@H](C)O [3102.0405] (H-ITYPKALVF-OH),3 nM
12,CC[C@H](C)[C@H](NC(=O)[C@H](CC(C)C)NC(=O)[C@H](CC(C)C)NC(=O)[C@H](CC(C)C)NC(=O)[C@H](CC(C)C)NC(=O)[C@H](CC(N)=O)NC(=O)CNC(=O)[C@H](CC(C)C)NC(=O)[C@@H](N)CCCCN)C(=O)O [3102.0406] (H-KLGNLLLLI-OH),0.72 nM
13,CC[C@H](C)[C@H](NC(=O)[C@H](Cc1ccc(O)cc1)NC(=O)CNC(=O)[C@H](CO)NC(=O)[C@@H](NC(=O)[C@@H](N)CCCCN)[C@@H](C)O)C(=O)N[C@@H](CO)C(=O)N[C@@H](CO)C(=O)N[C@@H](Cc1ccccc1)C(=O)O [3102.0408] (H-KTSGYISSF-OH),0.5 nM
14,CC[C@H](C)[C@H](NC(=O)[C@@H](NC(=O)[C@H](CC(C)C)NC(=O)[C@@H](NC(=O)[C@@H](NC(=O)[C@H](CO)NC(=O)[C@H](CC(C)C)NC(=O)[C@H](CCSC)NC(=O)[C@@H](N)[C@@H](C)O)[C@@H](C)CC)[C@@H](C)CC)C(C)C)C(=O)O [3102.0409] (H-TMLSIILVI-OH),16 nM
15,CC(C)C[C@H](NC(=O)[C@@H](N)Cc1ccc(O)cc1)C(=O)N[C@@H](Cc1ccccc1)C(=O)N[C@@H](CO)C(=O)N[C@@H](CCC(N)=O)C(=O)N[C@@H](CC(N)=O)C(=O)N[C@@H](Cc1ccc(O)cc1)C(=O)N[C@@H](CO)C(=O)N[C@@H](Cc1ccccc1)C(=O)O [3102.0410] (H-YLFSQNYSF-OH),1.4 nM
16,CC[C@H](C)[C@H](N)C(=O)N[C@@H](CC(C)C)C(=O)N[C@H](C(=O)N[C@H](C(=O)N[C@@H](Cc1ccccc1)C(=O)N[C@H](C(=O)N[C@H](C(=O)N[C@@H](C)C(=O)N[C@H](C(=O)O)[C@@H](C)CC)C(C)C)[C@@H](C)O)[C@@H](C)CC)C(C)C [3102.0411] (H-ILVIFTVAI-OH),15 nM
17,CC[C@H](C)[C@H](NC(=O)[C@@H](N)C(C)C)C(=O)N[C@@H](CC(N)=O)C(=O)N[C@@H](Cc1ccc(O)cc1)C(=O)N[C@@H](Cc1ccccc1)C(=O)N[C@@H](CC(N)=O)C(=O)N[C@@H](CCCNC(=N)N)C(=O)N[C@@H](CCSC)C(=O)N[C@@H](Cc1ccccc1)C(=O)O [3102.0412] (H-VINYFNRMF-OH),4.3 nM
18,CC[C@H](C)[C@H](NC(=O)[C@H](Cc1ccccc1)NC(=O)[C@H](CCCCN)NC(=O)[C@@H](NC(=O)[C@H](Cc1ccc(O)cc1)NC(=O)[C@H](CCC(N)=O)NC(=O)[C@@H](NC(=O)[C@@H](N)CC(C)C)C(C)C)[C@@H](C)CC)C(=O)N[C@@H](Cc1ccccc1)C(=O)O [3102.0413] (H-LVQYIKFIF-OH),20 nM
19,CC[C@H](C)[C@H](NC(=O)[C@@H](N)CCCCN)C(=O)N[C@@H](CC(=O)O)C(=O)N[C@@H](CC(N)=O)C(=O)N[C@@H](Cc1ccc(O)cc1)C(=O)N[C@H](C(=O)N[C@H](C(=O)N[C@@H](CCCCN)C(=O)N[C@@H](Cc1ccccc1)C(=O)O)C(C)C)C(C)C [3102.0414] (H-KIDNYVVKF-OH),19 nM
20,CC[C@H](C)[C@H](N)C(=O)N[C@@H](CO)C(=O)N[C@@H](CC(C)C)C(=O)N[C@@H](Cc1ccccc1)C(=O)N[C@@H](Cc1ccc(O)cc1)C(=O)N[C@H](C(=O)N[C@@H](Cc1ccccc1)C(=O)N[C@@H](C)C(=O)N[C@H](C(=O)O)[C@@H](C)CC)[C@@H](C)O [3102.0415] (H-ISLFYTFAI-OH),0.57 nM
21,C[C@@H](O)[C@H](NC(=O)CN)C(=O)N[C@@H](Cc1c[nH]cn1)C(=O)N[C@@H](Cc1ccc(O)cc1)C(=O)N[C@@H](CCC(N)=O)C(=O)N[C@@H](CC(N)=O)C(=O)N[C@@H](Cc1c[nH]cn1)C(=O)NCC(=O)N[C@@H](Cc1ccccc1)C(=O)O [3102.0417] (H-GTHYQNHGF-OH),6 nM
